Measurements as given in PubChem BioAssay AID2060624 (Molecular Pharmacology Branch, DTP, NCI, 2025).

Test system: 217524-143-R1-J4-PDC spheroids with HUVEC/MSC, viability
Test: Anticancer human tumor 217524-143-R1-J4-PDC patient-derived pancreatic carcinoma cell line growth inhibition [CLK]
Details: for IC50: curve of first compound; for viability, T/C: stronger effect = lower value
In short: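 Patient-derived tumor cells grown as complex spheroids with HUVEC endothelial cells and mesenchymal stem cells, treated with drug combinations. Concentrations descend in half-log steps from near clinical Cmax, or from 10 microM if Cmax unknown.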

[1] = second compound 0.0316 µM, first compound 0.0316 µM
[2] = second compound 0.0316 µM, first compound 0.1 µM
[3] = second compound 0.0316 µM, first compound 0.316 µM
[4] = second compound 0.0316 µM, first compound 1 µM
[5] = second compound 0.0316 µM, first compound 3.16 µM
[6] = second compound 0.0316 µM, first compound 10 µM
[7] = second compound 0.1 µM, first compound 0.0316 µM
[8] = second compound 0.1 µM, first compound 0.1 µM
[9] = second compound 0.1 µM, first compound 0.316 µM
[10] = second compound 0.1 µM, first compound 1 µM
[11] = second compound 0.1 µM, first compound 3.16 µM
[12] = second compound 0.1 µM, first compound 10 µM
[13] = second compound 0.316 µM, first compound 0.0316 µM
[14] = second compound 0.316 µM, first compound 0.1 µM
[15] = second compound 0.316 µM, first compound 0.316 µM
[16] = second compound 0.316 µM, first compound 1 µM
[17] = second compound 0.316 µM, first compound 3.16 µM
[18] = second compound 0.316 µM, first compound 10 µM
[19] = second compound 1 µM, first compound 0.0316 µM
[20] = second compound 1 µM, first compound 0.1 µM
[21] = second compound 1 µM, first compound 0.316 µM
[22] = second compound 1 µM, first compound 1 µM
[23] = second compound 1 µM, first compound 3.16 µM
[24] = second compound 1 µM, first compound 10 µM
[25] = second compound 3.16 µM, first compound 0.0316 µM
[26] = second compound 3.16 µM, first compound 0.1 µM
[27] = second compound 3.16 µM, first compound 0.316 µM
[28] = second compound 3.16 µM, first compound 1 µM
[29] = second compound 3.16 µM, first compound 3.16 µM
[30] = second compound 3.16 µM, first compound 10 µM
[31] = second compound 10 µM, first compound 0.0316 µM
[32] = second compound 10 µM, first compound 0.1 µM
[33] = second compound 10 µM, first compound 0.316 µM
[34] = second compound 10 µM, first compound 1 µM
[35] = second compound 10 µM, first compound 3.16 µM
[36] = second compound 10 µM, first compound 10 µM
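Further: spheroids exposed to agents for seven days before reading.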
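Wherever viability, T/C is given: 100% = DMSO vehicle control viability.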

## CC1(C)CCC(CN2CCN(c3ccc(C(=O)NS(=O)(=O)c4ccc(NCC5CCOCC5)c([N+](=O)[O-])c4)c(Oc4cnc5[nH]ccc5c4)c3)CC2)=C(c2ccc(Cl)cc2)C1 + CNC(=O)c1ccc(Nc2nc(OC3CCCC3)c3c(-c4ccc5nc(C)oc5c4)c[nH]c3n2)c(OC)c1
Second compound 0.0316 µM
  IC50: > 10000 nM
Second compound 0.1 µM
  IC50: < 31.6 nM
Second compound 0.316 µM
  IC50: < 31.6 nM
Second compound 1 µM
  IC50: < 31.6 nM
Second compound 3.16 µM
  IC50: < 31.6 nM
Second compound 10 µM
  IC50: < 31.6 nM
[1]
  viability, T/C: 86.2%
[2]
  viability, T/C: 87.7%
[3]
  viability, T/C: 81.2%
[4]
  viability, T/C: 79%
[5]
  viability, T/C: 88.5%
[6]
  viability, T/C: 79.3%
[7]
  viability, T/C: 42.1%
[8]
  viability, T/C: 45%
[9]
  viability, T/C: 38.1%
[10]
  viability, T/C: 46.1%
[11]
  viability, T/C: 39.1%
[12]
  viability, T/C: 37.7%
[13]
  viability, T/C: 34.1%
[14]
  viability, T/C: 40.7%
[15]
  viability, T/C: 38.7%
[16]
  viability, T/C: 38.2%
[17]
  viability, T/C: 36.9%
[18]
  viability, T/C: 37.1%
[19]
  viability, T/C: 24.4%
[20]
  viability, T/C: 29.3%
[21]
  viability, T/C: 31.6%
[22]
  viability, T/C: 27.4%
[23]
  viability, T/C: 31.4%
[24]
  viability, T/C: 25.9%
[25]
  viability, T/C: 27.4%
[26]
  viability, T/C: 28.9%
[27]
  viability, T/C: 24.1%
[28]
  viability, T/C: 27.2%
[29]
  viability, T/C: 29.1%
[30]
  viability, T/C: 22.3%
[31]
  viability, T/C: 23.1%
[32]
  viability, T/C: 25.7%
[33]
  viability, T/C: 24.9%
[34]
  viability, T/C: 26.4%
[35]
  viability, T/C: 26.7%
[36]
  viability, T/C: 24.9%

## CC1COCCN1c1cc(C2(S(C)(=N)=O)CC2)nc(-c2ccnc3[nH]ccc23)n1 (stereo unspecified) + CNC(=O)c1ccc(Nc2nc(OC3CCCC3)c3c(-c4ccc5nc(C)oc5c4)c[nH]c3n2)c(OC)c1
Second compound 0.0316 µM
  IC50: 1970 nM
Second compound 0.1 µM
  IC50: < 31.6 nM
Second compound 0.316 µM
  IC50: < 31.6 nM
Second compound 1 µM
  IC50: < 31.6 nM
Second compound 3.16 µM
  IC50: < 31.6 nM
Second compound 10 µM
  IC50: < 31.6 nM
[1]
  viability, T/C: 85.7%
[2]
  viability, T/C: 93.5%
[3]
  viability, T/C: 71.4%
[4]
  viability, T/C: 76.3%
[5]
  viability, T/C: 31.8%
[6]
  viability, T/C: 22.5%
[7]
  viability, T/C: 36.8%
[8]
  viability, T/C: 43.5%
[9]
  viability, T/C: 37.8%
[10]
  viability, T/C: 29.2%
[11]
  viability, T/C: 26.5%
[12]
  viability, T/C: 19.7%
[13]
  viability, T/C: 42.2%
[14]
  viability, T/C: 32.4%
[15]
  viability, T/C: 34.4%
[16]
  viability, T/C: 28.1%
[17]
  viability, T/C: 20.1%
[18]
  viability, T/C: 15.1%
[19]
  viability, T/C: 29.9%
[20]
  viability, T/C: 27.7%
[21]
  viability, T/C: 28.9%
[22]
  viability, T/C: 18.1%
[23]
  viability, T/C: 16.3%
[24]
  viability, T/C: 12.3%
[25]
  viability, T/C: 26.7%
[26]
  viability, T/C: 26%
[27]
  viability, T/C: 24.7%
[28]
  viability, T/C: 20.2%
[29]
  viability, T/C: 10.9%
[30]
  viability, T/C: 9.73%
[31]
  viability, T/C: 28.1%
[32]
  viability, T/C: 26.4%
[33]
  viability, T/C: 21.7%
[34]
  viability, T/C: 17.6%
[35]
  viability, T/C: 12.9%
[36]
  viability, T/C: 8.77%

## NC(=O)C(=Cn1cnc(-c2cc(C(F)(F)F)cc(C(F)(F)F)c2)n1)c1cncnc1 + CNC(=O)c1ccc(Nc2nc(OC3CCCC3)c3c(-c4ccc5nc(C)oc5c4)c[nH]c3n2)c(OC)c1
Second compound 0.0316 µM
  IC50: 16.6 nM
Second compound 0.1 µM
  IC50: < 9.49 nM
Second compound 0.316 µM
  IC50: < 9.49 nM
Second compound 1 µM
  IC50: < 9.49 nM
Second compound 3.16 µM
  IC50: < 9.49 nM
Second compound 10 µM
  IC50: < 9.49 nM
Second compound 0.0316 µM, first compound 0.00949 µM
  viability, T/C: 60.5%
Second compound 0.0316 µM, first compound 0.03 µM
  viability, T/C: 38.8%
Second compound 0.0316 µM, first compound 0.0949 µM
  viability, T/C: 22.9%
Second compound 0.0316 µM, first compound 0.3 µM
  viability, T/C: 25.2%
Second compound 0.0316 µM, first compound 0.949 µM
  viability, T/C: 26.6%
Second compound 0.0316 µM, first compound 3 µM
  viability, T/C: 20.1%
Second compound 0.1 µM, first compound 0.00949 µM
  viability, T/C: 29.9%
Second compound 0.1 µM, first compound 0.03 µM
  viability, T/C: 28.1%
Second compound 0.1 µM, first compound 0.0949 µM
  viability, T/C: 21%
Second compound 0.1 µM, first compound 0.3 µM
  viability, T/C: 24.4%
Second compound 0.1 µM, first compound 0.949 µM
  viability, T/C: 23%
Second compound 0.1 µM, first compound 3 µM
  viability, T/C: 18.7%
Second compound 0.316 µM, first compound 0.00949 µM
  viability, T/C: 23.2%
Second compound 0.316 µM, first compound 0.03 µM
  viability, T/C: 18.9%
Second compound 0.316 µM, first compound 0.0949 µM
  viability, T/C: 16.9%
Second compound 0.316 µM, first compound 0.3 µM
  viability, T/C: 17.7%
Second compound 0.316 µM, first compound 0.949 µM
  viability, T/C: 18.9%
Second compound 0.316 µM, first compound 3 µM
  viability, T/C: 13.2%
Second compound 1 µM, first compound 0.00949 µM
  viability, T/C: 18.8%
Second compound 1 µM, first compound 0.03 µM
  viability, T/C: 12.9%
Second compound 1 µM, first compound 0.0949 µM
  viability, T/C: 11.7%
Second compound 1 µM, first compound 0.3 µM
  viability, T/C: 11.5%
Second compound 1 µM, first compound 0.949 µM
  viability, T/C: 10.9%
Second compound 1 µM, first compound 3 µM
  viability, T/C: 8.56%
Second compound 3.16 µM, first compound 0.00949 µM
  viability, T/C: 14.1%
Second compound 3.16 µM, first compound 0.03 µM
  viability, T/C: 12.6%
Second compound 3.16 µM, first compound 0.0949 µM
  viability, T/C: 9.81%
Second compound 3.16 µM, first compound 0.3 µM
  viability, T/C: 8.7%
Second compound 3.16 µM, first compound 0.949 µM
  viability, T/C: 6.96%
Second compound 3.16 µM, first compound 3 µM
  viability, T/C: 6.45%
Second compound 10 µM, first compound 0.00949 µM
  viability, T/C: 14.2%
Second compound 10 µM, first compound 0.03 µM
  viability, T/C: 12%
Second compound 10 µM, first compound 0.0949 µM
  viability, T/C: 9.72%
Second compound 10 µM, first compound 0.3 µM
  viability, T/C: 7.3%
Second compound 10 µM, first compound 0.949 µM
  viability, T/C: 6.09%
Second compound 10 µM, first compound 3 µM
  viability, T/C: 5.49%
